Measurements from a melting point compilation (Tetko et al.; mined from patent text by program, amines drawn as free bases though some values may be those of a salt).

SMILES	melting point [°C]
Cc1cc2cc(N=[N+]=[N-])ccc2[nH]1	57 to 60
COc1cc(CO)ccc1OCc1csc(N2CCOCC2)n1	94 to 95
CCN1C(=O)C(C)(C)C(=O)N(C)c2cc(CN(CCn3ccc4oc(C)cc4c3=O)CCn3ccc4oc(C)cc4c3=O)ccc21	160 to 165
c1ccc(C2CN=C3NCCN32)cc1 (stereo not drawn)	167 to 170
CN(C)C(=O)COC(=O)c1ccc(Cl)cc1OCC(=O)N(C)C	140 to 141
COc1cccc(S)c1S(=O)(=O)NC(C)(C)C	210
O=S(=O)(Nc1cc(Cl)c(Cl)cc1Cl)C(F)(F)F	104 to 106
CC(C)(CO)CCCCC(CCCCC(C)(C)CO)C(C)(C)O	72 to 74
CCOC(=O)[C@@H]1C[C@@H](O)CN1S(C)(=O)=O	111 to 113
O=C(O)CCNC(=O)C1=C(C(=O)Nc2ccc(Cl)cc2F)CCCC1	158 to 159
CC(C)(C#N)c1ccc(OCc2ccccc2)cc1	63 to 64
CCc1cnc(N2CCN(C(=O)OC(C)(C)C)CC2)nc1	67 to 68
C=CCNC(=O)N1CCc2cc(S(=O)(=O)N3CC(c4ccccc4)NC3=O)ccc21 (stereo not drawn)	217 to 219
OCc1cccc(Nc2nc(Oc3ccccc3)nc(Oc3ccccc3Cl)n2)c1	52 to 54
O=C(OC1CCCCC1=O)c1ccc([N+](=O)[O-])cc1 (stereo not drawn)	124 to 125
CCOC(=O)c1nc(OC)cc(OC)n1	54 to 55
CCc1c(C(=O)c2cc(Cl)cc(Cl)c2)[nH]c(=O)[nH]c1=O	242 to 243
Cc1cc(Cl)ccc1-c1nn(C(C)(C)C(=O)N(C)C)cc1C	99 to 100
COc1ccc(-c2c(Cl)c(CN3C(=O)CCC3=O)nc3sc4c(c23)CCN(C(=O)C(F)(F)F)C4)cc1	250 to 252
CC(=O)c1cnc(Br)c(C)c1	114 to 115
CCOC(=O)c1c(C(F)(F)F)nc(C(F)F)c(CO)c1CC	59.5 to 60.5

SMILES	melting point [°C]
O=C(O)CCCCCCNC(=O)C(CS)Cc1ccccc1 (stereo not drawn)	71 to 73
CN1CCC(OC2c3ccccc3CCn3cc(-c4ccccc4)nc32)CC1 (stereo not drawn)	113
CC(=O)c1cc(NC(=O)NCCN(CCNC(=O)Nc2cc(C(C)=O)cc(C(C)=O)c2)CCNC(=O)Nc2cc(C(C)=O)cc(C(C)=O)c2)cc(C(C)=O)c1	197 to 198
CCC(=O)C1=C(O)CC(c2ccc3c(c2)OCCO3)CC1=O (stereo not drawn)	155
CC(C)(C)C1CCc2oc(=O)c(-c3ccccc3)c(O)c2C1 (stereo not drawn)	195
CC1(C)Oc2ccc(C#N)cc2[C@@H](OC2=CC(=O)CC2)[C@@H]1O (relative stereo)	154 to 156
C#CCNC(=NCCSCc1csc(NC(=N)N)n1)NC#N	146 to 148
Fc1ccc(Cn2c(NC3CCN(CCOc4ccc5ccccc5n4)CC3)nc3ccccc32)cc1	150
O=c1[nH]c2cc(Cl)cc(Cl)c2c(=O)n1Cc1cccc(F)c1	267 to 270
Fc1ccc(Nc2ncnc3cnc(N4CCC(CCC5CCNCC5)CC4)nc23)cc1Cl	112 to 114
CCNC(=O)c1c(Br)cccc1[Si](C)(C)C	121 to 122
CC1CCc2c(N3CCN(C)CC3)c(F)cc3c(=O)c(C(=O)O)cn1c23 (stereo not drawn)	262 to 263
CC12CCC(=O)C=C1CCC1C2=CCC2(C)C1CCC2(O)C(=O)CO (stereo not drawn)	248
COc1ccc(/C=C/c2nc3c([nH]2)c(=O)n(C)c(=O)n3C)c(Cl)c1OC	242
Nc1cc(=O)n(Cc2ccccc2[N+](=O)[O-])[nH]1	190
C[Si](C)(C)Sc1ncn([Si](C)(C)C)n1	90 to 94
COc1cc2c(cc1OC)C(=O)CCCS2	128 to 129
COC(=O)[C@@H](C)N[C@@H](CC(C)(C)C)C(=O)O	120 to 124
O=c1[nH]ncc2[nH]c(-c3ccc(OC(F)F)c(OC4CC4)c3)c(CO)c12	190 to 191
CCCNCC(O)c1cccc(Br)c1 (stereo not drawn)	79.7 to 81.4
CCC12CCC3C4CCC(=O)C=C4CCC3C1CCC2OC(=O)CCc1ccccc1 (stereo not drawn)	135 to 140

Now from value to compound:

melting point [°C]	SMILES
171 to 172	O=C(O)CCc1oc(-n2cccn2)nc1-c1ccc(Cl)cc1
76.2 to 81.7	Clc1ccc2c(c1)CCc1cccnc1C2=C1CCN(Cc2ccc(Cl)nc2)CC1
245 to 248	FC(F)c1nc2ccccc2n1-c1nc(Sc2ccccc2)nc(N2CCOCC2)n1
114 to 116	CC(=O)Nc1ccc(OCC2CCC=CO2)cc1 (stereo not drawn)
213 to 214	FC(F)(F)Cn1c(-c2c(Cl)cccc2Cl)nc(-c2ccncc2)c1-c1ccc(Cl)cc1
198 to 200	CCCCc1c(CNC(=O)OC(C)(C)C)c(CC(C)C)nc2ccc(O)cc12
259 to 260	COc1cccc(CNC(=O)c2nc3scc(-c4cccc(-c5ccc(C(=O)O)cc5)c4)c3c(=O)[nH]2)c1
197 to 198	CCNC(=O)c1cccc2c1c(=O)n(Cc1cccnc1)n2C(=O)OCC
74	CCCCc1cc(OCc2ccc(C#N)cc2)c2ccccc2n1
175 to 179	Cn1cc(C(=O)NCc2ccc(Cl)cc2)c(=O)c2cc(CCCO)cc(OCCO)c21
162 to 165	CC(C)NC(=O)Nc1ccc(-c2ccnc3c(C(=O)c4cccs4)cnn23)s1
222 to 224	Cc1ccc(NC(=O)NCc2cccc3c2C(=O)N(C2CCC(=O)NC2=O)C3=O)cc1C (stereo not drawn)
255 to 257	Cc1cccc(NC(=O)Nc2nnc(C(F)(F)F)s2)c1
128 to 129	CN(CCNc1ccc2ncc(Br)n2n1)C(=O)OC(C)(C)C
199 to 200	CCN(CC)CC1CCCN(CC(=O)N2c3ccccc3C(=O)Nc3cccnc32)C1 (stereo not drawn)
95 to 98	COC(=O)CCc1oc2ccc(C#N)cc2c1C(=O)c1ccc(OC)cc1
136 to 138	Nc1ccc(CNc2ccccn2)cc1O
253 to 254	CC(=O)NC[C@H]1CN(c2ccc(C(=O)c3cnc4nc(C)cc(C)n34)cc2)C(=O)O1
228 to 229	O=C(O)Cc1csc(-c2cc3cccc(NS(=O)(=O)c4cccs4)c3[nH]2)n1

melting point [°C]	SMILES
121 to 123	CSc1ncccc1NC(=O)CCCCCSc1nc2ccccc2[nH]1
125 to 128	N#CCc1c(Cl)nc(-c2ccc([N+](=O)[O-])cc2)n1Cc1ccccc1
198 to 199	N#CCCNC(=O)c1cccc(-c2ncc3ccn(Cc4ccc(Cl)cc4Cl)c3n2)c1
134 to 136	Cc1ccc([C@H](CC(=O)O)NC(=O)Nc2c(O)c3ccccc3n(Cc3ccccc3Cl)c2=O)cc1
205	CCOC(=O)c1cn(C)c2nc(Cl)ncc2c1=O
133 to 134	O=C1[C@H]2CCC[C@H]2N(C(=O)CCCCCn2ccnc2)c2ccccc2N1Cc1ccccc1 (relative stereo)
176 to 177	COc1ccc(CCCC(=O)Nc2ncc([N+](=O)[O-])s2)cc1
133 to 135	CCOC(=O)c1ncc2[nH]c3cccc(COC)c3c2c1C
154	C=CC(C)(C)c1cc(CCC(=O)c2ccc(O)cc2)c(OC)cc1O
272 to 274	COc1cc(C(C)C)ccc1C1(O)C(=O)c2ccc(N)c(N)c2C1=O (stereo not drawn)
134 to 136	O=[N+]([O-])c1ccc(Sc2ccc(Cl)cc2)nc1
196 to 197	CCOC(=O)c1[nH]c2ccc(Cl)cc2c1Cc1ccccc1
204 to 205	c1ccc(-c2nn3ccccc3c2-c2ccnnc2)cc1
124 to 125	CCOC(=O)/C(=N\OC(C)(C)C(=O)OC(C)(C)C)c1nc(C(c2ccccc2)(c2ccccc2)c2ccccc2)sc1N
70 to 71	CCOC(=O)CCc1cc(C(=O)c2ccc(C(=O)OCC)cc2)ccc1O
66 to 67	CCCC[C@H](NC(=O)[C@H](CC(C)C)NC(=O)COc1ccc(Cl)cc1)C(=O)CSCc1ccco1
184 to 186	CC(C)(C)C(NC(=O)c1ccc(Cl)cc1)NC(=NC#N)Nc1cccc(C(F)(F)F)c1 (stereo not drawn)
104 to 105	CC(C)(c1ccccc1)c1ccc2nc(-c3ccc(C(F)(F)F)cc3)oc(=O)c2c1
146 to 149	CC(C)(C)OC(=O)NC(Cc1ccccc1)C(=O)Nc1ccc2[nH]cc(CC#N)c2c1 (stereo not drawn)

melting point [°C]	SMILES
165 to 166	CCN(CC)CCCC1CCN(CCNC(=O)N2c3ccccc3C(=O)Nc3cccnc32)CC1
164 to 165	COC1OCC[C@@H]1NC(=O)[C@H](CC(C)C)NC(=O)[C@H](CC(C)C)NC(=O)[C@H](CC(C)C)NC(=O)c1ccc2c(c1)Nc1ccccc1S2 (stereo partly drawn)
80	O=C(OCCN1CCN(c2cccc(C(F)(F)F)c2)CC1)c1sccc1Nc1ccnc2cc(Cl)ccc12
118	CCCCCCOc1cc(C)ccc1C(=O)c1cccc(C(=O)O)c1
59 to 61	CC(C)c1nc(CN(C)C(=O)N[C@H](C(=O)N[C@@H](Cc2ccccc2)C[C@H](O)[C@H](Cc2ccccc2)NC(=O)OCc2cnco2)C(C)C)cs1
142 to 144	Cc1nc(N2CCN(CC3CC3)C2=O)sc1C(=O)NCc1ncccc1F
94 to 95	CCC(O)(CC)c1ccc(-c2cc(-c3c[nH]nc3-c3cccc(C)n3)ccc2F)nc1
133 to 134	CN1CCCC1c1ccc(CCNC(=O)c2ccc(Br)cc2)cc1 (stereo not drawn)
210	O=C(O)C#Cc1ccc(-c2ccc(Cl)cc2)cn1
130 to 131	OCc1csc(Nc2ccc(Oc3ccccc3)cn2)n1
149 to 150	Cc1cc(C2(C(F)(F)F)CC(c3ccc(F)cc3)=NO2)ccc1NC(=O)OC(C)(C)C (stereo not drawn)
110 to 111	Fc1ccccc1-c1nc2cnccc2o1
148	c1csc(C2NCCNCc3ccccc32)c1 (stereo not drawn)
170 to 172	CSc1nccc(-c2ssc(=S)c2C)n1
103 to 104	COc1ccc2c(c1)C(C)(C)Oc1c-2ccc(O)c1C(C)=O
154 to 156	CCN(CC)c1nc(-c2ccc(OC)cc2)nc2sc(C#N)c(C)c12
182 to 183	COC(=O)c1ccccc1S(=O)(=O)NC(=O)Nc1nc(C)c2ccccc2n1
214	O=C(NC(=O)c1ccccc1Cl)Nc1ccc(C(F)(F)F)cc1
